Assay results from patent publication US6156789A, “Method for treating abnormal cell proliferation in the brain” (Rhone-Poulenc Rorer S.A., priority 1998, dated 2000).
Where two headings read alike, the source gives them in different places.

Test: Tissue distribution of Compound A in mice with mammary C/16 adenocarcinomas (first method: liver, heart, kidney, lung, spleen, tumor)
Assay type: in vivo, C3H/HeN female mice
Details: for Kp at 1 h / Kp at 14 h / half-life / Tmax / Kp at 0.033 h / Kp at 0.083 h / Kp at 0.25 h / Kp at 4 h / Kp at 0.5 h / Kp at 24 h / Kp at 0.75 h: mouse, iv; for Kp at 0.5 h: 0.50 h
Method: Mammary C/16 adenocarcinomas were implanted in C3H/HeN female mice. At least 7 days later, 4α,10β-diacetoxy-2α-benzoyloxy-5β,20-epoxy-1β-hydroxy-7β,8β-methylene-9-oxo-19-nor-11-taxen-13α-yl (2R,3S)-3-tert-butoxycarbonylamino-2-hydroxy-3-phenylpropionate ("Compound A") was administered to groups of female mice at doses of 9.5, 15.4, 24.8, 40 or 60.5 mg/kg by intravenous injection under 0.4 or 0.5 ml/injection over 15 seconds. The body weight and date of implantation were recorded for each mouse. Blood and tissue samples were taken 2, 5, 15, 30 and 45 minutes and 1, 4, 14, 24 and 48 hours, after administration. The plasma was separated from the blood samples at 4° C. and frozen immediately. The tissue and tumors were weighed and frozen immediately (-20° C.).
The plasma and tissue samples were then analyzed for the concentration of Compound A. The plasma was assayed by high pressure liquid chromatography with spectrophotometric detection. For the tissue, liver, heart, kidney, lung, spleen and tumor tissue, samples were assayed by a first method, while a second method was used for the brain tissue analyzed. In the first method, 0.2 g of tissue was combined with 2 ml of sodium phosphate buffer 0.1 M (pH:7) and homogenized. The homogenate was centrifuged and 0.5 ml of supernatant was injected into the chromatographic column. In the second method, 10 μl of standard solution was combined with 0.2 g of brain tissue. 2 ml of methanol/5% perchloric acid (50/50) were added and the mixture was homogenized. The homogenate was centrifuged and 100 μl of supernatant was injected into the chromatographic column.

[1] = kidney/plasma, 40 mg/kg, 40 μg/kg [sic], mice with tumors, single mice, read-out: Tissue/Plasma Ratio, KIDNEY
[2] = liver/plasma, 40 mg/kg, mice with tumors, single mice, read-out: Tissue/Plasma Ratio, LIVER
[3] = lung/plasma, 40 mg/kg, 40 μg/kg [sic], mice with tumors, single mice, read-out: Tissue/Plasma Ratio, LUNG
[4] = spleen/plasma, 40 mg/kg, mice with tumors, single mice, read-out: Tissue/Plasma Ratio, SPLEEN
[5] = tumor/plasma, 40 mg/kg, mice with tumors, single mice, read-out: Tissue/Plasma Ratio, TUMOR
[6] = tumor/plasma, dose 9.5, single mice, read-out: Tumor/Plasma Ratio
[7] = tumor/plasma, dose 15.4, single mice, MEAN=b373, read-out: Tumor/Plasma Ratio
[8] = tumor/plasma, dose 24.8, single mice, read-out: Tumor/Plasma Ratio
[9] = tumor/plasma, dose 40, single mice, read-out: Tumor/Plasma Ratio
[10] = tumor/plasma, dose 60.5, single mice, read-out: Tumor/Plasma Ratio

In the case of `CC(=O)O[C@H]1C(=O)[C@]23C[C@H]2C[C@H]2OC[C@@]2(OC(C)=O)[C@H]3[C@H](OC(=O)c2ccccc2)[C@]2(O)C[C@H](OC(=O)[C@H](O)[C@@H](NC(=O)OC(C)(C)C)c3ccccc3)C(C)=C1C2(C)C` [Compound A, 4α,10β-diacetoxy-2α-benzoyloxy-5β,20-epoxy-1β-hydroxy-7β,8β-methylene-9-oxo-19-nor-11-taxen-13α-yl (2R,3S)-3-tert-butoxycarbonylamino-2-hydroxy-3-phenylpropionate], the Kp at 1 h [1] is reported as 2.17, the Kp at 14 h [1] is reported as 2.56 and the half-life (liver, 40 mg/kg, 40 mg/kg i.v., read-out: half-life of the distribution phase, liver (converted)) is reported as 17.4 min. It also gave a half-life (liver, 40 mg/kg, read-out: t 1/2, Liver (converted)) of 186 min, a Tmax (liver, 40 mg/kg i.v., read-out: time of maximum concentration, liver) of 4.98 min and a Kp at 0.033 h [2] of 1.54. The Kp at 0.083 h [2] was 3.07, the Kp at 0.25 h [2] was 1.79 and the Kp at 1 h [2] was 1.71. For the same compound, the Kp at 4 h [2] was 0.93, the Kp at 14 h (liver/plasma, 40 mg/kg, mice with tumors, single mouse, read-out: Tissue/Plasma Ratio, LIVER) was 1.62 and the half-life (lung, 40 mg/kg, 40 mg/kg i.v., read-out: half-life of the distribution phase, lung (converted)) was 20.4 min. The half-life (lung, 40 mg/kg, read-out: t 1/2, Lung (converted)) was 174 min, the Tmax (lung, 40 mg/kg i.v., read-out: time of maximum concentration, lung) was 4.98 min and the Kp at 0.033 h [3] was 0.33. The Kp at 0.083 h [3] was 0.79, the Kp at 0.25 h [3] was 0.95 and the Kp at 0.5 h [3] was 1.27. It also gave a Kp at 1 h [3] of 1, a Kp at 4 h [3] of 1.43 and a Kp at 14 h [3] of 0.81. It also gave a half-life (spleen, 40 mg/kg, 40 mg/kg i.v., read-out: half-life of the distribution phase, spleen (converted)) of 13.8 min, a half-life (spleen, 40 mg/kg, read-out: t 1/2, Spleen (converted)) of 450 min and a Tmax (spleen, 40 mg/kg i.v., read-out: time of maximum concentration, spleen) of 4.98 min. The Kp at 0.033 h [4] was 0.46, the Kp at 0.25 h [4] was 0.85 and the Kp at 0.5 h [4] was 1.24. The Kp at 1 h [4] was 1.1, the Kp at 4 h [4] was 1.72 and the Kp at 14 h [4] was 2.37. It also gave a half-life (tissues, 40 mg/kg, 40 mg/kg i.v., tissues other than brain, read-out: half-life in the other tissues) of 96 to 558 min, a half-life (tissues, 40 mg/kg, 40 mg/kg i.v., tissues tested except tumor and brain, read-out: elimination half-life, slower phase) of 96 to 450 min and a half-life (tumor, 40 mg/kg, read-out: t 1/2, Tumor (converted)) of 558 min. It also gave a Tmax (tumor, 40 mg/kg i.v., read-out: time of maximum concentration, tumor) of 15 min, a Kp at 0.033 h [5] of 0.2 and a Kp at 0.083 h [5] of 0.37. For the same compound, the Kp at 0.25 h [5] was 0.58, the Kp at 0.5 h [5] was 0.78 and the Kp at 1 h [5] was 0.95. It also gave a Kp at 4 h [5] of 1.8, a Kp at 24 h [5] of 2.79 and a Kp at 0.033 h [6] of 0.24. The Kp at 0.25 h [6] was 0.51, the Kp at 0.75 h [6] was 0.94 and the Kp at 1 h [6] was 2.02. For the same compound, the Kp at 4 h [6] was 3.45, the Kp at 0.033 h [7] was 0.23 and the Kp at 0.083 h [7] was 0.28. The Kp at 0.25 h [7] was 0.6, the Kp at 0.5 h [7] was 0.97 and the Kp at 0.75 h [7] was 1.75. The Kp at 1 h [7] was 1.83, the Kp at 4 h [7] was 1.9 and the Kp at 0.033 h [8] was 0.13. For the same compound, the Kp at 0.083 h [8] was 0.28, the Kp at 0.25 h [8] was 0.71 and the Kp at 0.75 h [8] was 1.14. It also gave a Kp at 1 h [8] of 1.29, a Kp at 4 h [8] of 1.61 and a Kp at 0.033 h [9] of 0.2. For the same compound, the Kp at 0.083 h [9] was 0.37, the Kp at 0.25 h [9] was 0.58 and the Kp at 0.5 h [9] was 0.78. The Kp at 1 h [9] was 0.95, the Kp at 4 h [9] was 1.8 and the Kp at 24 h [9] was 2.79. It also gave a Kp at 0.083 h [10] of 0.19, a Kp at 0.25 h [10] of 0.39 and a Kp at 0.5 h [10] of 0.62. For the same compound, the Kp at 4 h [10] was 2.48, the Kp at 24 h (tumor/plasma, dose 60.5, single mouse, read-out: Tumor/Plasma Ratio) was 13.3 and the “pharmacokinetics in mice with mammary tumors, linearity” value (range of doses administered) was “similarly linear”.
